Consider 4 compounds from patent US9731035B2, “Method of imaging osteoarthritis using a folate conjugate” (Purdue Research Foundation, priority 2005, dated 2017).

*1 amine or outer side, *2 acyl side, *3 side chain or, on linkers, in order; H or OH if unused. Where a SMILES comes first, the peptide text is derived from it. The star is where a group is joined. X1 = COc1ccc2c(c1)c(CC(=O)OCCS*)c(C)n2C(=O)c1ccc(Cl)cc1; Pteroyl = Nc1nc2ncc(CNc3ccc(C(=O)*)cc3)nc2c(=O)[nH]1; γGlu = O=C(O)[CH](CCC(=O)[*:2])N[*:1]

Test [1] has as its system folate receptors on peripheral blood monocytes of dogs. Put plainly: Folate dye conjugate binding to peripheral blood monocytes from dogs, flow cytometry. Also noted: species or system dog. The note with it: with/without 100-fold excess folic acid, FIG. 5, FIG. 6. The protocol:
(§1) An 8-10 ml sample of whole blood was collected in EDTA anticoagulant tubes. PBMCs were isolated from the blood samples using Ficoll-Paque Plus (Amersham Biosciences, Piscataway, N.J.) and by following the manufacture's provided protocol. Briefly, the blood sample was diluted 50:50 with a balanced salt solution (described below). 8 mL of Ficoll-Paque Plus was added to a 50 ml conical centrifuge tube. The diluted blood sample (approximately 16-20 ml) was layered on top of the Ficoll gradient. The sample was centrifuged at 400×g for 30 minutes at room temperature. Following centrifugation, the plasma layer (top clear layer) was removed using a pipette leaving the lymphocyte/monocyte layer undisturbed. The hazy cell layer immediately below the plasma layer was removed, being careful to remove the entire cell interface but a minimum amount of the Ficoll layer. […]
(§2) All binding experiments were conducted on ice or in a 4° C. cold room unless indicated otherwise. […] Analysis of folate conjugate binding and/or antibody binding was analyzed by confocal microscopy or by flow cytometry (FCS Calibur, BD, Franklin Lakes, N.J.). After washing ^3H-folic acid samples to remove non-specific binding, cells were dissolved in 0.25M NaOH and radioactivity was counted on a scintillation counter.

The target in test [2] is T1, folate receptors on human peripheral blood monocytes (Homo sapiens, UniProt P14207).
T1 construct: endogenous in cells; host or cells: human peripheral blood monocytes (PBMC isolated by Ficoll-Paque)
T1 sequence (P14207 17-230): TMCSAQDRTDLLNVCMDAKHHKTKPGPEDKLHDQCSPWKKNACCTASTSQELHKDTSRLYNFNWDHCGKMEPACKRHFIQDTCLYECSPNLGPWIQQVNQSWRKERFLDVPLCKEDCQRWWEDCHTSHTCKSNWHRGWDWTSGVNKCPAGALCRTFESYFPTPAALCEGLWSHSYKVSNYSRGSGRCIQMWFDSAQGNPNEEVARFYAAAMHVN
The experiment in a line: Folate dye conjugate binding to human peripheral blood monocytes, flow cytometry. The conditions noted are these: for percentage of human peripheral blood monocytes bound: CD11b+ monocytes, FIG. 2; for binding to human peripheral blood monocytes: FIG. 1. The method, then:
An 8-10 ml sample of whole blood was collected in EDTA anticoagulant tubes. PBMCs were isolated from the blood samples using Ficoll-Paque Plus (Amersham Biosciences, Piscataway, N.J.) and by following the manufacture's provided protocol. Briefly, the blood sample was diluted 50:50 with a balanced salt solution (described below). 8 mL of Ficoll-Paque Plus was added to a 50 ml conical centrifuge tube. The diluted blood sample (approximately 16-20 ml) was layered on top of the Ficoll gradient. The sample was centrifuged at 400×g for 30 minutes at room temperature. Following centrifugation, the plasma layer (top clear layer) was removed using a pipette leaving the lymphocyte/monocyte layer undisturbed. The hazy cell layer immediately below the plasma layer was removed, being careful to remove the entire cell interface but a minimum amount of the Ficoll layer. The isolated cells were put into a sterile 50 ml conical centrifuge tube and diluted 3-fold (vol/vol) using the balanced salt solution. The resulting cell solution was gently mixed and centrifuged at 100×g for 10 minutes at room temperature to pellet the cells. The supernatant was removed and the cells were resuspended in folate deficient RPMI 1640 medium supplemented with 10% heat-inactivated FBS, penicillin (100 IU/ml) and streptomycin (100 μg/ml). Cells were seeded in microcentrifuge tubes or microscopy chambers as dictated by the experiment.
(§3) All binding experiments were conducted on ice or in a 4° C. cold room unless indicated otherwise. Folate conjugate and ^3H-folic acid binding studies were performed by incubating cells with a 100 nM concentration of the indicated folate dye conjugate for 45 minutes. […] An acidic wash to strip cell-surface bound folate conjugates was performed on indicated samples by washing the cell sample with a 150 mM NaCl solution adjusted to pH 3.5 with acetic acid. All antibody labeling was optimized by titration. Optimal labeling was most often achieved with a 1/1000-1/10,000 dilution of the manufacture's stock antibody solution. After cells were labeled with folate dye conjugates and/or antibodies, the samples were washed twice with PBS to remove non-specific binding. Analysis of folate conjugate binding and/or antibody binding was analyzed by confocal microscopy or by flow cytometry (FCS Calibur, BD, Franklin Lakes, N.J.). After washing ^3H-folic acid samples to remove non-specific binding, cells were dissolved in 0.25M NaOH and radioactivity was counted on a scintillation counter.

Test [3] concerns folate receptors on peripheral blood monocytes of horses. The experiment in a line: Folate-FITC binding to peripheral blood monocytes from horses, flow cytometry. Also noted: species or system horse. The note with it: with/without 100-fold excess folic acid, FIG. 5. The protocol: as §1, §2
For test [4], the system named is adjuvant-induced arthritis. The experiment in a line: Adjuvant-induced arthritis in rats, paw swelling. The test is classed as in vivo, rat. The protocol:
Arthritis was induced in 150-200 g female Lewis rats (Harlan, Indianapolis, Ind.), n=2-5/dose group. Briefly, 0.5 mg of heat-killed […] butericum, suspended in mineral oil (5 mg/ml), was injected on day 0 into the left hind foot of rats following anesthesia with ketamine and xylazine. All treated animals developed arthritis, as evidenced by dramatic swelling in the injected paw, progressive swelling in all noninjected limbs due to the systemic progression of arthritis, and radiographic analysis of affected limbs. All rats were maintained on a folate-deficient diet (DYETS, Inc., Bethlehem, Pa.) for 3 weeks prior to administration of therapeutic agents in order to lower serum folate levels to physiologically relevant concentrations. Control rats were also maintained on a folate-deficient diet but were not induced to develop arthritis.
The protocol described in Example 32 for arthritis induction was followed. The efficacy of folate-flumethasone (50 nmoles/kg/day) and folate-indomethacin (100 or 250 nmoles/kg/day) against adjuvant-induced arthritis in rats was investigated. Rats were injected intraperitoneally with either saline (control rats) or folate-flumethasone (50 nmoles/kg/day) or folate-indomethacin (100 or 250 nmoles/kg/day) starting at day 4. The sudden increase in swelling of the adjuvant-injected foot is due to influx of neutrophils which have no folate receptors. […]

For test [5], the system named is folate receptors on white blood cells from dogs. Put plainly: 3H-folic acid binding to white blood cells from dogs. Also on record: species or system dog. The conditions noted are these: with/without 100-fold excess folic acid, FIG. 4. The method, then: as §3
The target in test [6] is T2, folate receptors on white blood cells from mice (Mus musculus, UniProt Q05685).
T2 construct: endogenous in cells; host or cells: mouse white blood cells
T2 sequence (Q05685 21-227): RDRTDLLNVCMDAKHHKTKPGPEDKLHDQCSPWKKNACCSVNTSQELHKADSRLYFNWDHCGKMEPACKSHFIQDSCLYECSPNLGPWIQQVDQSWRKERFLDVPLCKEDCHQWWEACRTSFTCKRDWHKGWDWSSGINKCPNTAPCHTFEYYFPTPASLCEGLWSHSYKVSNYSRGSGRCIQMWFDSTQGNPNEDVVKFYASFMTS
Put plainly: 3H-folic acid binding to white blood cells from mice. The note with it: with/without 100-fold excess folic acid, FIG. 4. The method, then:
as §3

The mark [7] stands for this setting: absence of unlabeled folic acid.
The mark [8] stands for this setting: presence of a 100-fold excess of unlabeled folic acid.

On to `Nc1nc2ncc(CNc3ccc(C(=O)NC(CCC(=O)NCCNC(=S)Nc4ccc(C(=O)O)c(-c5c6ccc(=O)cc-6oc6cc(O)ccc56)c4)C(=O)O)cc3)nc2c(=O)[nH]1` (stereo not drawn) [folate-FITC], for which the “folate receptor detection on peripheral blood monocytes” value in test [1] and in test [3] was “detectable” throughout. Further, the figures for the “percentage of human peripheral blood monocytes bound” value in test [2] (setting [7]) and in test [2] (setting [8]) were 45.9% and 2%, respectively. The “binding to human peripheral blood monocytes” value is given as “bound” in test [2] (setting [7]) and “competed” in test [2] (setting [8]). For the same compound, the “folate receptor detection on human peripheral blood monocytes” value is “detectable” in test [2] (healthy humans and patients with rheumatoid arthritis, osteoarthritis, fibromyalgia, FIG. 8); “detectable” in test [2] (patients with rheumatoid arthritis over the course of therapy, FIG. 10).

As for `CC1CC2C3CC(F)C4=CC(=O)C=CC4(C)C3(F)C(O)CC2(C)C1(O)C(=O)COC(=O)OCCSSCC(NC(=O)CCC(NC(=O)c1ccc(NCc2cnc3nc(N)[nH]c(=O)c3n2)cc1)C(=O)O)C(=O)O` (stereo not drawn) [folate-flumethasone], the “effect on paw swelling (left foot dimensions) after about 7 days” value in test [4] (50 nmoles/kg/day intraperitoneally starting at day 4, FIG. 9) is on record as “potent therapeutic effects”.

Regarding `COc1ccc2c(c1)c(CC(=O)OCCSSCC(NC(=O)C(CC(=O)O)NC(=O)C(CC(=O)O)NC(=O)C(CCCNC(=N)N)NC(=O)C(CC(=O)O)NC(=O)CCC(NC(=O)c1ccc(NCc3cnc4nc(N)[nH]c(=O)c4n3)cc1)C(=O)O)C(=O)O)c(C)n2C(=O)c1ccc(Cl)cc1` (stereo not drawn) [folate-indomethacin] ({Pteroyl-γGlu}-DRDDC(X1)-OH; configuration not given here), the “effect on paw swelling (left foot dimensions) after about 7 days” value in test [4] (100 or 250 nmoles/kg/day intraperitoneally starting at day 4, FIG. 9) is on record as “potent therapeutic effects”.

As for `Nc1nc2ncc(CNc3ccc(C(=O)N[C@@H](CCC(=O)O)C(=O)O)cc3)nc2c(=O)[nH]1` [^3H-Folic acid], the “folate receptor detection on white blood cells” value in test [5] and in test [6] was “detectable” throughout.
